The subject of assay [1] is 3T3-L1 adipocytes. The experiment in a line: Lipogenesis in 3T3-L1 adipocytes (Oil Red O / BODIPY). The note with it: for adipogenic / lipogenic response: relative to solvent and positive controls. It is filed as cell-based, murine.
Description: Prior to experiments, cells were cultured in DMEM containing 10% FBS-HI added 50 units penicillin/ml and 50 μg streptomycin/ml, and maintained in log phase prior to experimental setup. Cells were grown in a 5% CO2 humidified incubator at 37° C. Components of the pre-confluent medium included (1) 10% FBS/DMEM containing 4.5 g glucose/L; (2) 50 U/ml penicillin; and (3) 50 μg/ml streptomycin. Growth medium was made by adding 50 ml of heat inactivated FBS and 5 ml of penicillin/streptomycin to 500 ml DMEM. This medium was stored at 4° C. Before use, the medium was warmed to 37° C. in a water bath.
3T3-T1 cells were seeded at an initial density of 6×10^4 cells/cm^2 in 24-well plates. For two days, the cells were allowed grow to reach confluence. Following confluence, the cells were forced to differentiate into adipocytes by the addition of differentiation medium; this medium consisted of (1) 10% FBS/DMEM (high glucose); (2) 0.5 mM methylisobutylxanthine; (3) 0.5 μM dexamethasone and (4) 10 μg/ml insulin (MDI medium). After three days, the medium was changed to post-differentiation medium consisting of 10 μg/ml insulin in 10% FBS/DMEM.
Whenever fresh media were added, fresh test material was also added.
Oil Red 0 Staining—Triglyceride content of D6/D7-differentiated 3T3-L1 cells was estimated with Oil Red 0 according to the method of Kasturi and Joshi [Kasturi, R. and Joshi, V. C. […] Monolayer cells were washed with PBS (phosphate buffered saline, Mediatech) and fixed with 10% formaldehyde for ten minutes. Fixed cells were stained with an Oil Red 0 working solution of three parts 0.6% Oil Red O/isopropanol stock solution and two parts water for one hour and the excess stain was washed once with water. The resulting stained oil droplets were extracted from the cells with isopropanol and quantified by spectrophotometric analysis at 540 nm (MEL312e BIO-KINETICS READER, Bio-Tek Instruments, Winooski, Vt.).
Briefly, media were removed and cells were washed once with non-sterile PBS. A stock 1000× BODIPY/DMSO solution was made by dissolving 1 mg BODIPY in 1 ml DMSO (1,000 μg BODIPY/ml). […] One-hundred μl of this working solution (1 μg BODIPY) was added to each well of a 96-well microtiter plate. After 15 min on an orbital shaker (DS-500, VWR Scientific Products, South Plainfield, N.J.) at ambient temperature, the cells were washed with 100 μl PBS followed by the addition of 100 μl PBS for reading for spectrofluorometric determination of BODIPY incorporation into the cells.
Nonpolar lipid incorporation was represented relative to the nonpolar lipid accumulation of fully differentiated cells in the solvent controls.
Assay [2] deals with LPS-stimulated 3T3-L1 adipocytes. The experiment in a line: IL-6 secretion in LPS/3T3-L1 adipocytes. Format: cell-based, murine. The note with it: at the concentration of maximum inhibition, 100 ng LPS/ml; for IL-6 Index: indexed to LPS control.
The test system of assay [3] is LPS-treated 3T3-L1 adipocytes. The assay is described as follows: Adiponectin secretion in LPS/3T3-L1 adipocytes. It is filed as cell-based, murine. The note with it: for concentration of maximum adiponectin stimulation / Maximum adiponectin stimulation: 100 ng/ml LPS.
For assay [4], the system named is TNFα-treated 3T3-L1 adipocytes. The experiment in a line: Adiponectin secretion from TNFα-treated 3T3-L1 adipocytes. It is filed as cell-based, murine. The note with it: for maximum increase of adiponectin secretion from TNFα control: 10 ng/ml TNFα.
Description: For two days, the cells were allowed grow to reach confluence. […] (3) 0.5 μM dexamethasone and (4) 10 μg/ml insulin (MDI medium). […] Adiponectin Assay—The adiponectin secreted into the medium was quantified using the Mouse Adiponectin Quantikine® Immunoassay kit with no modifications (R&D Systems, Minneapolis, Minn.). […] Statistical Calculations and Interpretation—All assays were preformed in duplicate. […] Differences among the doses and test agents were determined using the Student's t-test without correction for multiple comparisons; the nominal five percent probability of a type I error was selected.
Assay [5] can be described thus: Non-fasting serum glucose in db/db diabetic mice. Format: in vivo.
Description: The Model—Male, C57BLKS/J m^+/m^+ Lepr^db (db/db) mice were used to assess the potential of the test materials to reduce fasting serum glucose or insulin concentrations. This strain of mice is resistant to leptin by virtue of the absence of a functioning leptin receptor.
Testing Procedure—Test substances were administered daily by gavage in 0.2% Tween-80. Serum was collected from the retroorbital sinus before the initial dose and ninety minutes after the third and final dose. Non-fasting serum glucose was determined enzymatically by the mutarotase/glucose oxidase method and serum insulin was determined by a mouse specific ELISA.
Testing Procedure—Test substances were administered daily by gavage in 0.2% Tween-80. Serum was collected from the retroorbital sinus before the initial dose and ninety minutes after the fifth and final dose. Non-fasting serum glucose was determined enzymatically by the mutarotase/glucose oxidase method and serum insulin was determined by a mouse specific ELISA.
For assay [6], the system named is insulin-resistant 3T3-L1 adipocytes. The experiment in a line: Adiponectin secretion from insulin-resistant 3T3-L1 adipocytes. It is filed as cell-based, murine. The note with it: 50.0 μg/ml, ratio of the indices (Table 21).
Description: 3T3-L1 cells were seeded at an initial density of 1×10^4 cells/cm^2 in 96-well plates. For two days, the cells were allowed grow to reach confluence. Following confluence, the cells were forced to differentiate into adipocytes by the addition of differentiation medium; this medium consisted of (1) 10% FBS/DMEM (high glucose); (2) 0.5 mM methylisobutylxanthine; (3) 0.5 μM dexamethasone and (4) 10 μg/ml insulin (MDI medium). From Day 3 through Day 5, the medium was changed to post-differentiation medium consisting of 10 μg/ml insulin in 10% FBS/DMEM.
Briefly, on Day 6, cells were maintained in serum-free media containing 0.5% bovine serum albumin (BSA) for three hours and then treated with 1 μg insulin/ml plus solvent or insulin plus test material. […] Twenty-four hours later, the supernatant medium was sampled for adiponectin determination.
Adiponectin Assay—The adiponectin secreted into the medium was quantified using the Mouse Adiponectin Quantikine® Immunoassay kit with no modifications (R&D Systems, Minneapolis, Minn.).
Substituting {relative adiponectin secretion/[concentration]} for the independent variable v/[S] and {relative adiponectin secretion} for the dependant variable {v}, produced a relationship of the form y=mx+b. […]
Assay [7] relates to PGE2 biosynthesis. The assay is described as follows: PGE2 biosynthesis in A549 cells stimulated by mite dust allergen. It is filed as cell-based, human. The note with it: 10 μg/ml. From the text:
Mite dust allergen isolation—Dermatophagoides farinae is the American house dust mite. D. farinae were raised on a 1:1 ratio of Purina Laboratory Chow (Ralston Purina, Co, St. Louis, Mo.) and Fleischmann's granulated dry yeast (Standard Brands, Inc. New York, N.Y.) at room temperature and 75% humidity. Live mites were aspirated from the culture container as they migrated from the medium, killed by freezing, desiccated and stored at 0% humidity. The allergenic component of the mite dust was extracted with water at ambient temperature. Five-hundred mg of mite powder were added to 5 ml of water (1:10 w/v) in a 15 ml conical centrifuge tube (VWR, Rochester, N.Y.), shaken for one minute and allowed to stand overnight at ambient temperature. The next day, the aqueous phase was filtered using a 0.2 μm disposable syringe filter (Nalgene, Rochester, N.Y.). The filtrate was termed mite dust allergen and used to test for induction of PGE2 biosynthesis in A549 pulmonary epithelial cells.
Cell culture and treatment—The human airway epithelial cell line, A549 (American Type Culture Collection, Bethesda, Md.) was cultured and treated as previously described in Example 6. Mite allergen was added to the culture medium to achieve a final concentration of 1000 ng/ml. Eighteen hours later, the media were sampled for PGE2 determination.

Assay [8] is described as follows: Serum cytokine (IL-6, TNF-α) analysis, collagen induced arthritis. It is filed as in vivo, DBA/J mice. The note with it: 10 mg/kg.
Description: Cytokine analysis—Serum was collected from the mice at the termination of the experiment for cytokine analysis. The volume of sample being low (˜0.2-0.3 ml/mouse), samples from the ten mice were randomly allocated into two pools of five animals each. This was done so to permit repeat analyses; each analysis was performed a minimum of two times. TNF-α and IL-6 were analyzed using mouse specific reagents (R&D Systems, Minneapolis, Minn.) according to the manufacturer's instructions.
Where [9] appears, read: at the concentration of maximum stimulation.

Marks after values point to notes of the source that are not given here.

`CC(C)CCC1=C(O)C(C(=O)C(C)C)=C(O)C(CCC(C)C)(CCC(C)C)C1=O` [Hexahydro colupulone, hexahydrocolupulone]: the “adipogenic / lipogenic response” value in assay [1] is recorded as “failed to elicit a lipogenic response greater than the solvent controls”.
With `CCc1ccc(CCOc2ccc(CC3SC(=O)NC3=O)cc2)nc1` (centres unmarked) [Pioglitazone, pioglitazone], the “IL-6 Index” value in assay [2] was 0.37*. For the same molecule, the “concentration of maximum adiponectin stimulation” value (“concentration” for short) in assay [3] was 1.25 µg/mL. Further, the “% Stimulation of adiponectin secretion (maximum)” value (“% Stimulation” below) in assay [3] (setting [9]) was 12%. For the same molecule, in assay [4], the “maximum increase of adiponectin secretion from TNFα control” value was 80%. Also, the “Adiponectin Index Observed” value in assay [4] (1.0 μg/ml (Table 26)) worked out at 1.80.
For `Cc1c(C)c2c(c(C)c1O)CCC(C)(COc1ccc(CC3SC(=O)NC3=O)cc1)O2` (centres unmarked) [Troglitazone, troglitazone], in assay [3], the “concentration” value is 0.625 µg/mL. Further, the “% Stimulation” value in assay [3] (setting [9]) is 15%. In assay [4], the “maximum increase of adiponectin secretion from TNFα control” value is recorded as 51%.
For `CC(C)Cc1ccc(C(C)C(=O)O)cc1` (centres unmarked) [ibuprofen], the “concentration” value in assay [3] came out at 0.625 µg/mL. In addition, in assay [3] (setting [9]), the “% Stimulation” value is on record as 22%.
With `COc1ccc2c(c1)c(CC(=O)O)c(C)n2C(=O)c1ccc(Cl)cc1` [Indomethacin, indomethacin], the “% Inhibition of IL-6 secretion (maximum)” value in assay [2] is 53* %. The “adipogenic / lipogenic response” value in assay [1] is recorded as “induced lipogenesis”. The molecule also had a Maximum adiponectin stimulation in assay [3] of 9%. Moreover, the “% Stimulation” value in assay [3] (setting [9]) is given as 9%.
As for `CN(C)C(=N)N=C(N)N` [metformin, reference compound], in assay [1] (Oil Red O, 50 μg/ml), the “lipogenic index (triglyceride content relative to solvent control)” value was found to be 0.79. For the same molecule, in assay [5] (three consecutive days), the “serum glucose relative to controls” value was “decreased”.
On to `O=C(O)c1ccccc1O` [salicylic acid], for which, in assay [2], the “IL-6 Index” value was 0.52*. The Maximum adiponectin stimulation entry in assay [3] is “failed to induce adiponectin secretion”. In assay [3] (at the concentration of maximum stimulation, indexed to LPS control), the “Adiponectin Index” value turned out to be 0.96.
Turning to `CN(CCOc1ccc(CC2SC(=O)NC2=O)cc1)c1ccccn1` (centres unmarked) [rosiglitazone], the “Glucose [% Pretreatment]” value in assay [5] (1.0 mg/kg-day by gavage, three days, db/db mice, non-fasting serum) is on record as 83.0# % Pretreatment.
In the case of `CC(C)CCC1=C(O)C(C(=O)C(C)C)=C(O)C(CCC(C)C)(CCC(C)C)C1=O` [Hexahydrocolupulone (HHCL)], the Adiponectin/IL-6 in assay [6] is on record as 0.60#.
Beta acids: the “Percent PGE2 Inhibition” value in assay [7] is given as 83%. Moreover, the “adipogenic / lipogenic response” value in assay [1] is “comparable to indomethacin and troglitazone”.
Regarding `C[C@]12C=CC(=O)C=C1CC[C@@H]1[C@@H]2[C@@H](O)C[C@@]2(C)[C@H]1CC[C@]2(O)C(=O)CO` [prednisolone], the “reduction of serum IL-6 levels” value in assay [8] was “reached a statistical significance”.
Consider `CC(=O)Oc1ccccc1C(=O)O` [Aspirin, aspirin], for which the Maximum adiponectin stimulation entry in assay [3] was “failed to induce adiponectin secretion”.
